Laboratory results reported in patent US8258127B2, “Methods for treating latent tuberculosis” (Institut National de la Sante et de la Recherche Medicale …, priority 2008, dated 2012).

Legend:
[1] = target: T1, LdtMt1 L,D-transpeptidase (Mycobacterium tuberculosis, UniProt O53638); assay: Inhibition of LdtMt1 L,D-transpeptidase activity by β-lactams (formation of mDap3→mDap3 cross-linked dimers, mass spectrometry); format: biochemical; details: for blocking of the L,D-transpeptidase enzyme (summary in words): summary statement of the description
T1 sequence (O53638 32-251 limits assumed): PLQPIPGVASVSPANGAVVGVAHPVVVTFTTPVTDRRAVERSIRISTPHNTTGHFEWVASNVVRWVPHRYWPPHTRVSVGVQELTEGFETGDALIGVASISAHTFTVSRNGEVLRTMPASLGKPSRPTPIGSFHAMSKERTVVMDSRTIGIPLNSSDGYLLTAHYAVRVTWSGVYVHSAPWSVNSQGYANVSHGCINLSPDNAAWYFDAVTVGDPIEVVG
Description: The disaccharide-tetrapeptide containing amidated meso-diaminopimelic acid (GlcNAc-MurNAc-L-Ala^1-D-iGln^2-mesoDapNH2^3-D-Ala^4) was purified from C. jeikeium strain CIP103337 and the concentration w as determined by amino acid analysis after acid hydrolysis (Arbeloa et al., 2007, J. Biol. Chem., Vol. 279: 41546-41556; Auger et al., FEMS Microbiol. Lett., Vol. 219: 115-119). In vitro formation of muropeptide dimers was tested in 10 μL of 50 mM Tris-HCl (pH 7.5) containing 300 mM NaCl, 11 μM LdtMt1, and 280 μM disaccharide-tetrapeptide. The reaction mixture was incubated for 2 hours at 37° C., treated with ammonium hydroxide, and the resulting lactoyl-peptides were analyzed by nanoelectrospray tandem mass spectrometry using N2 as the collision gas (Arbeloa et al., 2007, Supra).
LdtMt1 (12.5 μM) was pre-incubated for 20 min at 37° C. with ampicillin (Bristol-Myers), ceftriaxone (Roche Applied Science), and imipenem (Merck Sharpe and Dhome-Chibret) in 50 mM Tris-HCl (pH 7.5) containing 300 mM NaCl (buffer A). The L,D-transpeptidation reaction was started by the addition of the disaccharide-tetrapeptide (final concentration 280 μM) and allowed to proceed for 2 hours at 37° C. The reaction products were detected by mass spectrometry (Mainardi et al., 2007, J. Biol. Chem., Vol. 282: 30414-30422).
To investigate inhibition of the L,D-transpeptidase activity of LdtMt1 by β-lactams, the formation of dimers containing mDap^3→mDap^3 cross-links was tested in the presence of various drug concentrations.

[2] = target: T1, LdtMt1 L,D-transpeptidase; assay: Formation of enzyme-drug adducts between LdtMt1 and β-lactams (electrospray mass spectrometry); format: binding; details: LdtMt1 12.5 μM, β-lactam 125 μM, 1 h at 37° C.; for Average mass Observated of LdtMt1-β-lactam adduct: ND: not detected, native protein 24,584.4
Description: LdtMt1 (12.5 μM) was incubated without antibiotic (left panel) or with 125 μM imipenem (right panel). Proteins and adducts were detected by electrospray mass spectrometry. Peaks at m/z 848.75 and 879.03 correspond to the [M+29H]^29+ and [M+28H]^28+ ions of the native protein, respectively (deduced average mass of 24,584.4). Peaks at m/z 859.08 and 889.65 correspond to the [M+29H]^29+ and [M+28H]^28+ ions of the LdtMt1-imipenem adduct (deduced average mass of 24,883.5).
The formation of enzyme-drug adducts was tested by incubating LdtMt1 (12.5 μM) with β-lactams (125 μM) for 1 h at 37° C. in buffer A. The reaction mixture was dialyzed against water for 30 min and the average mass of proteins and protein-β-lactam adducts was determined as described (Mainardi et al., 2007, Supra).
To gain insight into the mechanism of LdtMt1 inhibition by β-lactams, binding of the drugs to the enzyme was tested by electrospray mass spectrometry. […] Adducts matching increments of the average mass of other carbapenems, meropenem and ertapenem, were also detected (Table 2 hereunder).

[3] = LdtMt1 12.5 μM, pre-incubated 20 min at 37° C., disaccharide-tetrapeptide 280 μM, 2 hours

Structure (SMILES): CC1(C)S[C@@H]2[C@H](NC(=O)[C@H](N)c3ccccc3)C(=O)N2[C@H]1C(=O)O [Ampicillin, ampicillin]
- highest tested concentration without inhibition of LdtMt1 [1, 3]: > 5.7 mM
- blocking of the L,D-transpeptidase enzyme (summary in words) [1]: inactive
- formation of adduct with LdtMt1 (in words) [2]: No adduct was detected

Structure (SMILES): CO/N=C(\C(=O)N[C@@H]1C(=O)N2C(C(=O)O)=C(CSc3nc(=O)c(=O)[nH]n3C)CS[C@H]12)c1csc(N)n1 [Ceftriaxone, ceftriaxone]
- drug concentration required for full inhibition of enzyme activity [1, 3]: 360 µM
- formation of adduct with LdtMt1 (in words) [2]: No adduct was detected

Structure (SMILES): C[C@@H](O)[C@H]1C(=O)N2C(C(=O)O)=C(S[C@@H]3CN[C@H](C(=O)Nc4cccc(C(=O)O)c4)C3)[C@H](C)[C@H]12 [Ertapenem, ertapenem]
- blocking of the L,D-transpeptidase enzyme (summary in words) [1]: block the said L,D-transpeptidase enzyme
- formation of adduct with LdtMt1 (in words) [2]: detected
- Average mass Observated of LdtMt1-β-lactam adduct [2]: 25,059.9

Structure (SMILES): C[C@@H](O)[C@H]1C(=O)N2C(C(=O)O)=C(S[C@@H]3CN[C@H](C(=O)N(C)C)C3)[C@H](C)[C@H]12 [Meropenem, meropenem]
- blocking of the L,D-transpeptidase enzyme (summary in words) [1]: block the said L,D-transpeptidase enzyme
- formation of adduct with LdtMt1 (in words) [2]: detected
- Average mass Observated of LdtMt1-β-lactam adduct [2]: 24,967.8
